Data published in patent EP0540143B1, “Compounds and methods for inhibition of HIV and related viruses” (priority 1991, dated 1993).
Several values for one entry are separate records, joined by “and”; a condition that tells them apart may be missing. Identical values can stand only once.

Tests used:
HIV virus = assay: Test A (XTT), MT4 cells infected with HIV; format: cell-based; conditions: for inhibition at 1 µg/mL / inhibition at 10 µg/mL / inhibition at 100 µg/mL: Human immunodeficiency virus 1, MT4, Test A; for % inhibition: Test A
Description: (§1) Tests A, B, C, and D (XTT)
(§2) MT4 cells in a medium of RPMI 1640, 5% FCS, penicillin/streptomycin are adjusted to 2x10^5 cells/ml and seeded into microplates (96 wells/plate) 100 µl cell suspension/well giving 2x10^4 cells/well. The compound to be tested is made into a 10 mg/ml mixture in DMSO and stored at -20°C. The compound in DMSO is diluted with medium containing 10% DMSO in a 10-fold dilution series to give 1 mg/ml, 10 mg/ml, and […] solutions. Further dilutions to 400, 40, 4 and 0.4 mg/ml are made in medium containing microplates. Fifty µl of the 400, 40, and 4 mg/ml are transferred to the cell-containing microplates with a multi-channel pipette (final concentration: 100, 10, and 1 mg/ml). Finally, 50 µl of virus suspension is added to each well (with a repetitive "Eppendorf" multipipett). Each plate has at least six wells with the following: [Test A: HIV virus; Test B: HIV(II) virus; Test C: SIV virus; Test D: No virus]; with no drug (virus control) and six wells without virus (medium control). The plate is put into a plastic bag and incubated for six days in CO2 atmosphere. To each well in the plate is added 50 µl of XTT ((2,3-bis[2-methoxy-4-nitro-5-sulfophenyl]-5-[(phenylamino)carbonyl]-2H-tetrazolium hydroxide), (1 mg/ml 0.01-0.02 mM N-metyl-phenazonium methosulfate). After six hours of incubation in CO2 atmosphere the plates are covered with adhesive plate sealers and gently mixed on a vortex. Optical densities are determined at a wavelength of 450 nm and a reference wavelength of 650 nm. The percent reduction of cytotoxocity caused by the virus infection is calculated as follows: (OD450 compound - OD450 inf cells)/(OD450 uninf cells - OD450 inf cells)x 100 [formula]

HIV(II) virus = assay: Test B (XTT), MT4 cells infected with HIV(II); format: cell-based; conditions: Human immunodeficiency virus 1, MT4, Test B
Description: as §1, §2

SIV virus = assay: Test C (XTT), MT4 cells infected with SIV; format: cell-based; conditions: Simian immunodeficiency virus, MT4, Test C
Description: as §1, §2

HIV-1 [1] = assay: Test E (HIV-1 RT), RT activity in supernatant of infected MT-4/H9 cells; format: cell-based; conditions: Human immunodeficiency virus 1, H9, Test E
Description: (§3) Tests E, F, G, H (HIV-IRT, HIV-2RT, SIVRT, no virus)
(§4) MT-4/H9-cells are adjusted to 2x10^5 cells/ml medium (RPMI 1640, 5% FCS, penicillin/streptomycin) and seeded into microplates (96 wells/plate) […] cell suspension/well giving 2 x 10^4 cells/well. The compound to be tested is made 10 mg/ml in DMSO = stock solution (stored at -20°C). The compound dissolved in DMSO is diluted 25 times in medium to give 400 mg/ml. Further dilutions to 40 mg/ml and 4 mg/ml are made in microplates.
(§5) 50 µl of the dilutions 400 mg/ml, 40 mg/ml and 4mg/ml are transferred to the "cell-containing" microplate with a multichannel pipette. […]
(§6) Finally 50 µl of virus suspension is added to each well (with a repetitive "Eppendorf multipett"). [Test E-HIV-1; Test F-HIV-2; Test G-SIV; Test H-no virus].
(§7) Each plate has at least four wells with virus but no drug (virus control) and two wells without virus (medium control). The plate is put into a plastic bag to avoid evaporation and incubated for six days in CO2-atmosphere. 10 µl supernatant from each well is transferred with a multichannel pipette into a new microplate to which 40 ml VDB, (50 mM Tris-HCl pH = 7.6, 35 mM KCl, 4 mM DTT, 1 mM EDTA, 1.3% Triton X-100), have been added to each well. The addition of 50 ml RT-reaction mix, (10 ml culture supernatant, 40 ml VDB and 50 ml reaction mixture giving a final concentration of: 100 mM Tris-HCl pH = 7.6, 100 mM KCl, 4 mM MgCl2, 4 mM DTT, 275 mg/ml BSA/ml, 5 mg (rA)n(dT)12-18/ml and 0.3 mM ^3H dTTP (specific activity 18.000 cpm/pmol)) gives a final volume of […]/well. After 60 minutes of incubation the whole assay volume is transferred by use of a cell harvester to a filter mat prewetted with 5% TCA. The filter is washed in 5% TCA and rinsed once in ethanol. After drying the filter mat at 60°C for 30 min. each filter (96/mat) is punched out and put into counting vials 2 ml of scintillation fluid is added and the samples are counted (1 min) or the whole filter mat is put into a plastic bag, 10 ml of scintillation fluid is added and the filter mat is counted in a Beckman Betaplate counter. Percent reduction of RT activity is determined by comparing RT activity for virus control with the RT activity measured for each dilution of the compound.

HIV-2 = assay: Test F (HIV-2 RT), RT activity in supernatant of infected MT-4/H9 cells; format: cell-based; conditions: Human immunodeficiency virus 2, H9, Test F
Description: as §3, §4, §5, §6, §7

SIV = assay: Test G (SIV RT), RT activity in supernatant of infected MT-4/H9 cells; format: cell-based; conditions: Simian immunodeficiency virus
Description: as §3, §4
50 µl of the dilutions 400 mg/ml, 40 mg/ml and 4mg/ml are transferred to the "cell-containing" microplate with a multichannel pipette. (Final concentration: 100, 10 and 1 mg/ml).
as §6, §7

recombinant HIV-RT = recombinant HIV-RT (Human immunodeficiency virus type 1 group M subtype B, UniProt P04585); assay: Test I (HIVRT (rAdt)), direct inhibition of recombinant HIV-RT; format: biochemical
Description: The compounds were tested for direct inhibitory activity on HIV-RT in a volume of […] recombinant HIV-RT (diluted in virus disruption buffer to give 200.000 cpm).
100 mM Tris-HCl pH 7.6, 100 mM KCl, 4 mM MgCl2, 4 mM DTT, 275 mg/ml BSA, 0.5 mg (rA)n(dT)12-18 and 0.3 mM ^3H- dTTP (specific activity […]). After 60 minutess of incubation 40 ml in duplicate were spotted on paper discs and washed in 5% TCA. After rinsing the paper discs in ethanol they were dried and counted in scintillation fluid.

MT4 cells = assay: Test D (XTT), MT4 cells, no virus; format: cell-based; conditions: Homo sapiens
Description: as §1, §2

HIV-1 [2] = assay: combination with AZT against HIV-1 in CEM cells, technique of Prichard and Shipman; format: cell-based; conditions: combination of AZT and the compound
Description: The combination was evaluated against HIV-1 in CEM cells using the technique of Prichard and Shipman (Antiviral Research, 14, 181-206 (1990)).

[3] = titration pKa (66% DMF/H2O)
physchem = conditions: 66% dmf/h2o

Compound	inhibition at 0.1 µg/mL (HIV(II) virus)	inhibition at 1 µg/mL (HIV(II) virus)	inhibition at 10 µg/mL (HIV(II) virus)	inhibition at 100 µg/mL (HIV(II) virus)	inhibition at 1 µg/mL (SIV virus)	inhibition at 10 µg/mL (SIV virus)	inhibition at 100 µg/mL (SIV virus)	inhibition at 1 µg/mL (HIV-1 [1])	inhibition at 10 µg/mL (HIV-1 [1])	inhibition at 100 µg/mL (HIV-1 [1])	inhibition at 1 µg/mL (HIV-2)	inhibition at 10 µg/mL (HIV-2)	inhibition at 100 µg/mL (HIV-2)	inhibition at 0.1 µg/mL (recombinant HIV-RT)	inhibition at 1 µg/mL (recombinant HIV-RT)	inhibition at 10 µg/mL (recombinant HIV-RT)	also measured
S=C(NCCc1ccccc1)Nc1nc2c(Cl)cccc2s1	18%	22%	100%	36%	0%	2%	17%	11%	8%	97%	6%	72%	93%	9%	6%	1%	inhibition at 1 µg/mL (HIV virus): 4%; inhibition at 10 µg/mL (HIV virus; 10 µg/ml): 19%; inhibition at 100 µg/mL (HIV virus; 100 µg/ml): 100%; inhibition at 0.1 µg/mL (HIV-2): 1%; inhibition at 1 µg/mL (SIV): 1%; inhibition at 10 µg/mL (SIV): 1%; inhibition at 100 µg/mL (SIV): 87%
S=C(NCCc1ccccc1)Nc1nc2ccc(Cl)cc2s1	24%	9%	67%	27%	0%	0%	21%	1%	51%	96%	1%	79%	98%	12%	18%	18%	inhibition at 1 µg/mL (HIV virus): 0%; inhibition at 10 µg/mL (HIV virus; 10 µg/ml): 63%; inhibition at 100 µg/mL (HIV virus; 100 µg/ml): 68%; % inhibition (HIV virus; 10 µg/ml): 67%; % inhibition (HIV virus; 100 µg/ml): 49%; inhibition at 1 µg/mL (SIV): 1%; inhibition at 10 µg/mL (SIV): 12%; inhibition at 100 µg/mL (SIV): 90%
Fc1ccc2nc(NC(=S)NCCc3ccccc3)sc2c1	4%	40%	12%	93%	2%	5%	19%	51%	16%	95%	77%	62%	97%	33%	38%	39%	% inhibition (HIV virus; 100 µg/ml): 100% and 72%; inhibition at 1 µg/mL (MT4 cells; 1 µg/ml): 5%; inhibition at 10 µg/mL (MT4 cells; 10 µg/ml): 28%; inhibition at 100 µg/mL (MT4 cells; 100 µg/ml): 0%; inhibition at 0.1 µg/mL (HIV-1 [1]; 0.1 µg/ml): 1%; inhibition at 0.1 µg/mL (HIV-2): 4%
Cc1cn([C@H]2C[C@H](N=[N+]=[N-])[C@@H](CO)O2)c(=O)[nH]c1=O [AZT, reference compound]	–	–	–	–	–	–	–	–	–	–	–	–	–	–	–	–	concentration at the peak of synergy (HIV-1 [2]): 0.005 µg/mL
NCCc1c(F)cccc1F [Example 312, 2-(2,6-Difluorophenyl)ethylamine]	–	–	–	–	–	–	–	–	–	–	–	–	–	–	–	–	pKa [3]: 9.06
S=C(NCCC1=CCCCC1)Nc1ccc(Cl)nn1 [Example 336, N-[2-(1-cyclohexenyl)ethyl]-N'-[3-(6-chloro)pyridazinyl]thiourea]	–	–	–	–	–	–	–	–	–	–	–	–	–	–	–	–	pKa ([3]; pKa, 66% DMF): 12.8
Fc1cccc(F)c1CCNC(=S)Nc1ccc(Cl)nn1 [Example 337, N-[2-(2,6-difluorophenyl)ethyl]-N'-[3-(6-chloro)pyridazinyl] thiourea]	–	–	–	–	–	–	–	–	–	–	–	–	–	–	–	–	pKa ([3]; pKa, 66% DMF): 12.7
NCCc1ncccc1F [Example 417, 2-aminoethyl-3-fluoropyridine]	–	–	–	–	–	–	–	–	–	–	–	–	–	–	–	–	pKa (physchem): 9.56
S=C(NCCc1ccccc1)Nc1nccs1 [drawing 35]	–	–	–	–	–	–	–	–	–	–	–	–	–	–	–	–	concentration at the peak of synergy (HIV-1 [2]): 0.5 µg/mL; effect of the combination (HIV-1 [2]): synergistic effect
